ChEMBL document CHEMBL4354799, “Exploiting Structural Dynamics To Design Open-Flap Inhibitors of Malarial Aspartic Proteases” (J Med Chem, 2019)

How the values were obtained:
[1] = molecular target: T1, Plasmepsin II (Plasmodium falciparum, UniProt P46925); assay: Inhibition of Plasmodium falciparum plasmepsin 2 using Dabcyl-ERNIef:LSFP-EDANS as substrate incubated for 40 mins by FRET assay
[2] = molecular target: T1, Plasmepsin II; assay: Inhibition of Plasmodium falciparum plasmepsin 2 by FRET assay
[3] = molecular target: T1, Plasmepsin II; assay: Inhibition of Plasmodium falciparum plasmepsin 2 preincubated for 30 mins followed by DABCYL-Glu-Arg-Nle-Phe-Leu-Ser-Phe-Pro-EDANS addition measured every minute for 8 to 15 mins by FRET assay
[4] = molecular target: T1, Plasmepsin II; assay: Inhibition of Plasmodium falciparum plasmepsin 2 using DABCYL-Glu-Arg-Nle-Phe-Leu-Ser-Phe-Pro-EDANS as substrate by FRET assay
[5] = molecular target: Cathepsin D (Homo sapiens, UniProt P07339); assay: Inhibition of human liver cathepsin D using DABCYL-Glu-Arg-Nle-Phe-Leu-Ser-Phe-Pro-EDANS as substrate by FRET assay
Cathepsin D, sequence (P07339 65-162 limits assumed): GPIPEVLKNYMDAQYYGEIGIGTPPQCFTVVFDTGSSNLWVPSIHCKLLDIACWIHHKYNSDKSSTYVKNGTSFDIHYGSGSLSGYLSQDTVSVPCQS
Cathepsin D, sequence (P07339 169-412 limits assumed): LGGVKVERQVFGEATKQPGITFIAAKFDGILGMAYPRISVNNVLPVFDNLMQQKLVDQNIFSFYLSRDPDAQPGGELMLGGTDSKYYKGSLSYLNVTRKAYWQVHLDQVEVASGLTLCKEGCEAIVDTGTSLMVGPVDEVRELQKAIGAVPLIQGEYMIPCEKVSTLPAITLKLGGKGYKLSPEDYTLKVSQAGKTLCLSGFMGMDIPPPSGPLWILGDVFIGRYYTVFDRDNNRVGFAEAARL

[6] = molecular target: T1, Plasmepsin II; assay: Inhibition of Plasmodium falciparum plasmepsin 2 using fluorescently labeled peptide substrate by fluorescence method
[7] = molecular target: T2, Plasmepsin 4 (Plasmodium falciparum, UniProt Q17SB2); assay: Inhibition of Plasmodium falciparum plasmepsin 4 using fluorescently labeled peptide substrate by fluorescence method
T2 sequence (Q17SB2 whole entry): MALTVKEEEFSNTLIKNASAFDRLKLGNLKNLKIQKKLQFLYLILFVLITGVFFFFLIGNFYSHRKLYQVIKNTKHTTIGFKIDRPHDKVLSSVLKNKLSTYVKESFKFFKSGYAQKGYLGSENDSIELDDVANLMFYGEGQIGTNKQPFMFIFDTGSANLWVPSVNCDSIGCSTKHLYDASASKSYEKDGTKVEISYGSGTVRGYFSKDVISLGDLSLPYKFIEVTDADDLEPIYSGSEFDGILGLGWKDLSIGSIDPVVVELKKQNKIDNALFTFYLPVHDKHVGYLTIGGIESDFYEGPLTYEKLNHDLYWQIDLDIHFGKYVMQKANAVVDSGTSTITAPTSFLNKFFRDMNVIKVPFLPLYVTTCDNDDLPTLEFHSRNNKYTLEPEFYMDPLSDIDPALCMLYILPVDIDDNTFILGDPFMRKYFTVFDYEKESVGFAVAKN

[8] = molecular target: T2, Plasmepsin 4; assay: Inhibition of Plasmodium falciparum plasmepsin 4 by FRET assay
[9] = molecular target: T1, Plasmepsin II; assay: Inhibition of Plasmodium falciparum plasmepsin 2 incubated for 10 mins followed by DABCYL-Glu-Arg-Nle-Phe-Leu-Ser-Phe-Pro-EDANS addition and measured after 30 mins by fluorescence method

T1 sequence (P46925 whole entry): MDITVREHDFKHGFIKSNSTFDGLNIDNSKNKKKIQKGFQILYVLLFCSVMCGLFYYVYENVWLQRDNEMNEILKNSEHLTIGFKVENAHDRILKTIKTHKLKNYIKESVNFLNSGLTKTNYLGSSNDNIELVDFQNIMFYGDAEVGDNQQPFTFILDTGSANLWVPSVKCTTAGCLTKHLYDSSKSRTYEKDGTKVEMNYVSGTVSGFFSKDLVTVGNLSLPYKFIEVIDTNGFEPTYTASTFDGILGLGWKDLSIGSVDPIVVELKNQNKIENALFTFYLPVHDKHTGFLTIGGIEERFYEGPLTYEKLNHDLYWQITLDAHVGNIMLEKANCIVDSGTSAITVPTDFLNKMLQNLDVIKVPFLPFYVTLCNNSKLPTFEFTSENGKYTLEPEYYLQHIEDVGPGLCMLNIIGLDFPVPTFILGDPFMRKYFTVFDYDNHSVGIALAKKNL

SMILES: O=C(C1=C(c2ccc(CCCOc3ccccc3Cl)cc2)CCNC1)N(Cc1ccccc1Cl)C1CC1
- IC50 [1]: < 0.1 µM

SMILES: CCCCCc1ccc(N(CC2CCC(O)C(F)(F)C2)C(=O)Cc2ccc3ccccc3c2)cc1 (centres undefined)
- IC50 [2]: 7 µM

SMILES: CCN(CC)CCc1nnn(-c2ccc(C)cc2)c1-c1ccc(-c2ccc(OC)cc2)cc1
- IC50 [3]: > 200 µM

SMILES: c1ccc(NNc2ccccc2)cc1 [HYDRAZOBENZENE]
- IC50 [4]: 1 to 2.5 µM
- IC50 [5]: 1 to 2.5 µM

SMILES: c1cc(NNc2ccncc2)ccn1
- IC50 [4]: 1 to 2.5 µM
- IC50 [5]: 1 to 2.5 µM

SMILES: CCCCCc1ccc(-n2nnc(CCN(CC)CC)c2-c2ccc(-c3ccc(OC)cc3)cc2)c(Cl)c1
- IC50 [3]: 0.6 µM

SMILES: c1ccc(-c2nnc(SCCOc3cc4c(cc3OCCc3cccc5ccccc35)C3CCC4N3)o2)cc1 (centres undefined)
- IC50 [2]: 79 µM

SMILES: CCc1ccc(C(=O)N(Cc2ccc(-c3ccccc3)cc2)C2CCN(Cc3ccccc3)CC2)cc1
- IC50 [1]: 15.6 µM

SMILES: O=S(=O)(c1ccc(CCCCC2CCCC2)cc1)C1C2CCC(N2)C1NCc1ccc2ccccc2c1 (centres undefined)
- IC50 [6]: 0.19 µM
- IC50 [7]: 0.21 µM

SMILES: CC(C)(C)c1ccc(C(=O)N(Cc2ccc(-c3ccccc3)cc2)C2CCN(Cc3ccccc3)CC2)cc1
- IC50 [1]: > 20 µM

SMILES: O=S(=O)(c1ccc(CCCCC2CCC2)cc1)C1C2CCC(N2)C1NCc1ccc2ccccc2c1 (centres undefined)
- IC50 [6]: 0.17 µM
- IC50 [7]: 0.18 µM

SMILES: CCCCCCCCCCc1ccc(S(=O)(=O)C2C3CCC(N3)C2NCc2ccc3ccccc3c2)cc1 (centres undefined)
- IC50 [6]: 0.35 µM
- IC50 [7]: 3.19 µM

SMILES: c1ccc2c(CCOc3cc4c(cc3CCCSc3nc5ccccc5s3)C3CCC4N3)cccc2c1 (centres undefined)
- IC50 [2]: 4 µM
- IC50 [8]: 33 µM

SMILES: CCCCCN(CCCCC)CC(O)c1cc2c(c3ccccc13)CCCC2 (centres undefined)
- IC50 [6]: 5 µM

SMILES: COc1ccccc1C(=O)NN
- IC50 [4]: 1 to 2.5 µM
- IC50 [5]: 1 to 2.5 µM

SMILES: O=C(Nc1ccc(Oc2ccc(Cl)cc2)c(Cl)c1)Nc1cc(C(F)(F)F)c(Cl)cc1S(=O)(=O)O
- Ki [9]: 0.05 to 0.68 µM

SMILES: O=C(Nc1ccc(Oc2ccc(Cl)cc2)c(Cl)c1)Nc1cc(Cl)c(Cl)cc1S(=O)(=O)O
- Ki [9]: 0.05 to 0.68 µM

SMILES: CC(=O)N1CC2CC(c3ccc(CCOc4cccc(Cl)c4)cc3)=C(C(=O)N(C)CCc3ccccc3)C(C1)N2 (centres undefined)
- IC50 [1]: 0.1 to 10 µM

SMILES: CCCCCc1ccc(-n2nnc(CCN(CC)CC)c2-c2ccc(-c3ccc(OC)cc3)cc2)cc1
- IC50 [3]: 0.6 µM

SMILES: O=C(Nc1ccc(Cl)c(Cl)c1)Nc1cc(Cl)c(Oc2ccc(Cl)cc2)cc1S(=O)(=O)O
- Ki [9]: 0.05 to 0.68 µM

SMILES: CC(=O)N1CC2CC(c3ccc(CCOc4cc(F)ccc4Br)cc3)=C(C(=O)N(C)CCc3ccccc3)C(C1)N2 (centres undefined)
- IC50 [1]: < 0.01 µM

SMILES: CC(=O)N1CC2CC(c3ccc(CCOc4cccc(Br)c4)cc3)=C(C(=O)N(C)CCc3ccccc3)C(C1)N2 (centres undefined)
- IC50 [1]: 0.01 to 0.1 µM

SMILES: CCCCc1ccc(S(=O)(=O)C2C3CCC(N3)C2NCc2ccc3ccccc3c2)cc1 (centres undefined)
- IC50 [6]: 4.19 µM
- IC50 [7]: 1.48 µM

SMILES: CC(=O)N1CC2CC(c3ccc(CCOc4cc(Cl)ccc4Cl)cc3)=C(C(=O)N(C)CCc3ccccc3)C(C1)N2 (centres undefined)
- IC50 [1]: 0.01 to 0.1 µM

SMILES: CCCCCCCCCCCc1ccc(S(=O)(=O)C2C3CCC(N3)C2NCc2ccc3ccccc3c2)cc1 (centres undefined)
- IC50 [6]: 1.95 µM
- IC50 [7]: 5.35 µM

SMILES: CC(=O)N1CC2CC(c3ccc(CCOc4ccc(C)cc4C(C)(C)C)cc3)=C(C(=O)N(C)CCc3ccccc3)C(C1)N2 (centres undefined)
- IC50 [1]: 0.1 to 10 µM

SMILES: CCCC(=O)NN
- IC50 [4]: 1 to 2.5 µM
- IC50 [5]: 1 to 2.5 µM

SMILES: CCCCCCCCCCCC(=O)N(Cc1ccc(-c2ccccc2)cc1)C1CCN(Cc2ccccc2)CC1
- IC50 [1]: 1.8 µM

SMILES: CCCCCCCc1ccc(S(=O)(=O)C2C3CCC(N3)C2NCc2ccc3ccccc3c2)cc1 (centres undefined)
- IC50 [6]: 0.05 µM
- IC50 [7]: 0.21 µM

SMILES: CC(C)CCCN(CCCC(C)C)CC(O)c1cc2c(c3ccccc13)CCCC2 (centres undefined)
- IC50 [6]: 19 µM

SMILES: O=C(C1=C(c2ccc(CCCOc3cc(F)ccc3Br)cc2)CCNC1)N(Cc1ccccc1Cl)C1CC1
- IC50 [1]: < 0.1 µM

SMILES: CCCCCc1ccc(S(=O)(=O)C2C3CCC(N3)C2NCc2ccc3ccccc3c2)cc1 (centres undefined)
- IC50 [6]: 0.68 µM
- IC50 [7]: 0.24 µM

SMILES: CCCCCCCCc1ccc(S(=O)(=O)C2C3CCC(N3)C2NCc2ccc3ccccc3c2)cc1 (centres undefined)
- IC50 [6]: 0.07 µM
- IC50 [7]: 0.43 µM

SMILES: O=C(Nc1cccc(C(F)(F)F)c1)Nc1ccc(Oc2ccc(Cl)cc2Cl)cc1S(=O)(=O)O
- Ki [9]: 0.05 to 0.68 µM

SMILES: CCCCCc1ccc(C(=O)N(Cc2ccc(-c3ccccc3)cc2)C2CCN(Cc3ccccc3)CC2)cc1
- IC50 [1]: 0.07 to 0.09 µM

SMILES: NNC(=O)c1ccccc1[N+](=O)[O-]
- IC50 [4]: 1 to 2.5 µM
- IC50 [5]: 1 to 2.5 µM

SMILES: CC(=O)N1CC2CC(c3ccc(CCOc4ccc(C(C)(C)C)cc4C)cc3)=C(C(=O)N(C)CCc3ccccc3)C(C1)N2 (centres undefined)
- IC50 [1]: 0.01 to 0.1 µM

SMILES: O=C(Nc1cc(C(F)(F)F)ccc1Cl)Nc1cc(Cl)ccc1Oc1cc(Cl)c(Cl)cc1S(=O)(=O)O
- Ki [9]: 0.05 to 0.68 µM

SMILES: Cc1ccc(C)c(OCCCc2ccc(C3=C(C(=O)N(Cc4ccccc4Cl)C4CC4)CNCC3)cc2)c1C
- IC50 [1]: 0.1 to 10 µM

SMILES: NNC(=O)C(c1ccccc1)c1ccccc1
- IC50 [4]: 1 to 2.5 µM
- IC50 [5]: 1 to 2.5 µM

SMILES: CCCCCCc1ccc(S(=O)(=O)[C@@H]2[C@H](NCc3cccc(Br)c3)[C@@H]3CC[C@H]2N3)cc1
- IC50 [6]: ≤ 0.045 µM
- IC50 [7]: 0.01 µM

SMILES: O=C(C1=C(c2ccc(CCCOc3c(F)ccc(F)c3F)cc2)CCNC1)N(Cc1ccccc1Cl)C1CC1
- IC50 [1]: 0.1 to 10 µM

SMILES: O=C(Nc1cc(C(F)(F)F)cc(C(F)(F)F)c1)Nc1c(Oc2ccc(Cl)cc2)ccc(Cl)c1S(=O)(=O)O
- Ki [9]: 0.05 to 0.68 µM

SMILES: COc1cccc(OCCc2ccc(C3=C(C(=O)N(C)CCc4ccccc4)C4CN(C(C)=O)CC(C3)N4)cc2)c1 (centres undefined)
- IC50 [1]: 0.01 to 0.1 µM

SMILES: O=C(Nc1ccc(Cl)c(C(F)(F)F)c1)Nc1cc(Cl)c(Oc2ccc(Cl)cc2)cc1S(=O)(=O)O
- Ki [9]: 0.05 to 0.68 µM

SMILES: CCCCCc1ccc(Cn2nnc(CCN(CC)CC)c2-c2ccc(-c3ccc(OC)cc3)cc2)cc1
- IC50 [3]: 5.2 µM

SMILES: CCCCOc1ccc(C(=O)N(Cc2ccc(-c3ccccc3)cc2)C2CCN(Cc3ccccc3)CC2)cc1
- IC50 [1]: 1.7 µM

SMILES: CC(=O)N1CC2CC(c3ccc(CCOc4cccc(OC(F)(F)F)c4)cc3)=C(C(=O)N(C)CCc3ccccc3)C(C1)N2 (centres undefined)
- IC50 [1]: 0.01 to 0.1 µM

SMILES: CC(=O)N1CC2CC(c3ccc(CCOc4ccccc4C(C)(C)C)cc3)=C(C(=O)N(C)CCc3ccccc3)C(C1)N2 (centres undefined)
- IC50 [1]: 0.01 to 0.1 µM

SMILES: CC(=O)N1CC2CC(c3ccc(CCOc4ccccc4C(C)C)cc3)=C(C(=O)N(C)CCc3ccccc3)C(C1)N2 (centres undefined)
- IC50 [1]: 0.01 to 0.1 µM

SMILES: CC(C)CCCCc1ccc(S(=O)(=O)C2C3CCC(N3)C2NCc2ccc3ccccc3c2)cc1 (centres undefined)
- IC50 [6]: 0.03 µM
- IC50 [7]: 0.09 µM

SMILES: COc1cc2c(cc1OCCc1cccc3ccccc13)C1CCC2N1 (centres undefined)
- IC50 [2]: 24 µM
- IC50 [8]: 81 µM

SMILES: CC(=O)N1CC2CC(c3ccc(CCOc4cc(Cl)cc(Cl)c4)cc3)=C(C(=O)N(C)CCc3ccccc3)C(C1)N2 (centres undefined)
- IC50 [1]: 0.01 to 0.1 µM

SMILES: CCCCCCc1ccc(S(=O)(=O)C2C3CCC(N3)C2NCc2ccc3ccccc3c2)cc1 (centres undefined)
- IC50 [6]: 0.13 µM
- IC50 [7]: 0.05 µM

SMILES: CCCCCCCCCc1ccc(S(=O)(=O)C2C3CCC(N3)C2NCc2ccc3ccccc3c2)cc1 (centres undefined)
- IC50 [6]: 0.15 µM
- IC50 [7]: 1.36 µM

SMILES: Clc1ccc2sc(SCCCc3cc4c(cc3OCCc3cccc5ccccc35)C3CCC4N3)nc2c1 (centres undefined)
- IC50 [2]: 2 µM
- IC50 [8]: 10 µM

SMILES: O=C(Nc1ccc(Cl)c(Cl)c1)Nc1cc(Cl)ccc1Oc1cc(Cl)c(Cl)cc1S(=O)(=O)O
- Ki [9]: 0.05 to 0.68 µM

SMILES: c1ccc2c(CCOc3cc4c(cc3OCCSc3nc5ccccc5s3)C3CCC4N3)cccc2c1 (centres undefined)
- IC50 [2]: 3 µM
- IC50 [8]: 15 µM

SMILES: O=S(=O)(c1ccc(CCCCC2CCCCC2)cc1)C1C2CCC(N2)C1NCc1ccc2ccccc2c1 (centres undefined)
- IC50 [6]: 0.38 µM
- IC50 [7]: 0.76 µM

SMILES: CC(=O)N1CC2CC(c3ccc(CCOc4ccccc4Cl)cc3)=C(C(=O)N(C)CCc3ccccc3)C(C1)N2 (centres undefined)
- IC50 [1]: 0.1 to 10 µM

SMILES: O=C(Nc1ccc(Cl)c(C(F)(F)F)c1)Nc1cc(Cl)ccc1Oc1ccc(Cl)cc1S(=O)(=O)O
- Ki [9]: 0.05 to 0.68 µM
